This is an account of results in US12497396B2, “Nitrogen-containing heterocyclic derivatives, method therefor and application therefor as inhibitors of KRAS G12C for the treatment of cancers” (SHANGHAI HANSOH BIOMEDICAL CO., LTD., priority 2019, dated 2025).

Data set [1] concerns Mia PaCa-2 cells (KRAS G12C mutant cell line). Put plainly: Inhibition of Mia PaCa-2 cell proliferation (CellTiter-Glo, 72 h). The settings on record: Homo sapiens. It is filed as cell-based, human. The source says:
(§1) As a preferred embodiment of the present disclosure, the detection method of NCI-H358 cell proliferation inhibitory activity and Mia PaCa-2 cell proliferation inhibitory activity is as follows: through cell culture, adding different concentrations of compound solutions to the cultured cells, continuing the culture for a period of time and measuring the cell proliferation; • further, the method of cell culture is: adjusting the cells to a suitable cell concentration with complete medium and spreading the cell suspension in well plates for culture; preferably, the culture conditions are 37° C., 5% CO2 incubator overnight; preferably, the cell suspension is spread in 96-well plates, 48-well plates, 24-well plates, 12-well plates or 6-well plates, more preferably 96-well plates; preferably, the suitable cell concentration is 1500-4000 cells/well, with 90 μL of cell suspension added to each well; • further, the compound solution is prepared with DMSO and may be further diluted with medium; preferably, the compound solution has a concentration gradient starting from 100 μM at 4-fold dilution, more preferably starting from 30 μM at 4-fold dilution, most preferably starting from 10 μM at 4-fold dilution; • further, the volume of the compound solution or solvent added to each well is 1-10 μL, preferably 10 μL; • further, after adding the compound solution, the conditions for continuing the culture are 37° C., 5% CO2 incubator; preferably, the culture time is 24-72 h, more preferably 72 h; • further, the method for measuring cell proliferation is MTT, CCK8, CellTiter-Glo; preferably the method is CellTiter-Glo; • further, the cell proliferation is read using a microplate reader, more preferably a BioTek Synergy H1 microplate reader.
(§2) When NCI-H358 or Mia PaCa-2 cells were cultured to the appropriate fusion level, the NCI-H358 or Mia PaCa-2 cells were collected, and the cells were adjusted to the appropriate cell concentration using a complete medium, and the cell suspension was spread in a 96-well plate, 90 μL per well, and placed in a 37° C., 5% CO2 incubator overnight; and compound solutions of different concentrations were prepared using DMSO and culture medium; and a solvent control was set, the compound solution was added to a 96-well plate, 10 μL per well, at 37° C. in a 5% CO2 incubator for 72 hours; CellTiter-Glo solution was added thereto and the mixture was mixed well by shaking, incubated for 10 min in the dark, and read by BioTek Synergy H1 microplate reader.
(§3) The luminescence signal values were used to calculate the inhibition rate, the concentration and the inhibition rate were fitted to a nonlinear regression curve using Graphpad Prism software, then the IC50 value was obtained.

The subject of data set [2] is NCI-H358 cells (KRAS G12C mutant cell line). Put plainly: Inhibition of NCI-H358 cell proliferation (CellTiter-Glo, 72 h). Type of data set: cell-based, human. The settings on record: Homo sapiens.
Excerpt: as §1, §2, §3
(Cellular ATP, detected with luciferase, serves as a proxy for viable cell number.)

For another data set, the target named is T1, human KRAS G12C protein (Homo sapiens, UniProt P01116, G12C).
T1 construct: purchased Beijing SinoBiological Co., Ltd. 12259-H07E2
Put plainly: Thermal shift: melting temperature of KRAS G12C protein. It is filed as binding. The settings on record: for Tm (° C.): KRAS G12C protein 5.37 μM with compound 10 μM, 1 hour incubation. The procedure:
A solution containing […] (pH 7.5), 1 mM DTT, 5×SYPRO Orange and 150 mM NaCl was prepared as the experimental buffer, and a final concentration of 5.37 μM human KRAS G12C protein was added thereto. […] After incubating at room temperature in the dark for 1 hour, the PCR tube was put into the PCR instrument, QuantStudio Software v1.3 was opened, and the melting temperature of KRAS G12C protein in different treatment groups was detected by melt curve function (heating from 25° C. to 95° C., 0.03° C./s). The experimental data file of PCR instrument was imported into thermal shift software, and the melting temperature (Tm) of each treatment group was obtained, and the change value of melting temperature (Δ Tm) was obtained by subtracting the Tm of DMSO solvent control group.

A further data set is described as follows: in vitro. It is filed as in vitro ADME. The settings on record: 0.5 μM. The protocol:
Animal or human whole blood was collected, then the blood was put into a test tube containing anticoagulant, centrifuged at 3500 rpm for 10 min, and the upper layer of pale yellow plasma was collected. • 2), 10 μM of tested compound (m/M/V=C)
The compound was weighed, the stock solution was prepared with DMSO and the working solution was prepared with 100 mM phosphate buffer. • 3), 10 μM of positive control (1) Propantheline (Propantheline Mr=449.4 Da)
• 1) 285 μL of plasma and 15 μL of 10 μM compound (tested compound) were added in turn in a 96-well plate, and incubated at 37° C. • 2) 40 μL was taken out at 0, 15, 30, 60, 90, 120 min, respectively, and 160 μL of acetonitrile termination solution containing internal standard was added. • 3) After centrifugation (3500 rpm, 10 min), 50 μL of supernatant was taken out, and then diluted with 50 μL DDH2O and injected to LC-MS/MS.
• Instrument: Shimadzu LC-20 AD • Chromatographic column: phenomenex Gemiu® C18 (50*4.6 mm, 5 μM particle size); • mobile phase: A: acetonitrile, B: 0.1% formic acid solution […], 2.0-2.1 min: 90% A→5% A; flow rate: 0.8 mL/min; running time: 5.0 min; injection volume: 5 μL.
• Instrument: API4000 Liquid Chromatography-Mass Spectrometry, AB, USA; • the ion source was electrospray ionization source (ESI); • the temperature of dry gas (N2) was 500° C.; • electrospray voltage was 5500V; • the detection method was positive ion detection; • the scanning mode was selective response monitoring (MRM). • the scanning time was 0.1 s.

Setting [3] is: compound 10 μM, Tm minus Tm of DMSO solvent control.

Turning to `C=CC(=O)N1CCN(c2nc(=O)n(-c3c(SC)ccnc3C(C)C)c3nc(-c4c(O)cccc4F)c(F)cc23)[C@@H](C)C1` (single isomer, unassigned) [Embodiment 60-1], the IC50 (as a rule, the midpoint of a concentration-inhibition curve) in data set [1] worked out at 55 nM; in data set [2], 28 nM.

Turning to `C=CC(=O)N1CCN(c2nc(=O)n(-c3c(C)ccnc3C(C)C)c3nc(-c4c(F)cccc4SC)c(F)cc23)[C@@H](C)C1` (single isomer, unassigned) [Embodiment 75-1], the values for the IC50 in data set [1] and in data set [2] were 36 nM and 25 nM, respectively.

As for `C=CC(=O)N1CCN(c2nc(=O)n(-c3c(C)ccnc3C(C)C)c3nc(-c4c(F)cccc4C(=O)N(C)C)c(F)cc23)[C@@H](C)C1` [Embodiment 73], the “Tm (° C.)” value on human KRAS G12C protein was 55.5 °C. For the same molecule, on human KRAS G12C protein (setting [3]), the “ΔTm (° C.)” value turned out to be 6.9 °C.

With `C=CC(=O)N1[C@H](C)CN(c2nc(=O)n(-c3c(SC)ccnc3C(C)C)c3nc(-c4c(O)cccc4F)c(F)cc23)C[C@@H]1C` [Embodiment 115, 4-((3S, 5R)-4-acryloyl-3,5-dimethylpiperazin-1-yl)-6-fluoro-7-(2-fluoro-6-hydroxyphenyl)-1-(2-isopropyl-4-(methylthio)pyridin-3-yl) pyrido [2,3-d] pyrimidin-2 (1H)-one], the “Tm (° C.)” value on human KRAS G12C protein was determined as 55.2 °C. Besides, the ΔTm – broadly, the change in melting temperature against a reference sample – at 10 µM on human KRAS G12C protein (setting [3]) came out at 6.6 °C.

Regarding `C=CC(=O)N1CCN(c2nc(=O)n(-c3c(C)ccnc3C(C)C)c3nc(-c4cccnc4SC)c(F)cc23)[C@@H](C)C1` [Embodiment 136, (S)-4-(4-acryloyl-2-methylpiperazin-1-yl)-6-fluoro-1-(2-isopropyl-4-methylpyridin-3-yl)-7-(2-(methylthio)pyridin-3-yl) pyrido [2,3-d] pyrimidin-2 (1H)-one], on human KRAS G12C protein, the “Tm (° C.)” value came out at 57.3 °C. The ΔTm at 10 µM at human KRAS G12C protein (setting [3]) is 8.7 °C.

On to `C=CC(=O)N1C[C@H](C)N(c2nc(=O)n(-c3c(SC)ccnc3C(C)C)c3nc(-c4c(N)c(Cl)cc(Cl)c4F)c(Cl)cc23)C[C@H]1C` [Embodiment 193, 4-((2S, 5R)-4-acryloyl-2,5-dimethylpiperazin-1-yl)-7-(2-amino-3,5-dichloro-6-fluorophenyl)-6-chloro-1-(2-isopropyl-4-(methylthio)pyridin-3-yl) pyrido [2,3-d] pyrimidin-2 (1H)-one], for which, in data set [1], the IC50 was 18 nM.

In the case of `C=CC(=O)N1CCN(c2nc(=O)n(-c3c(SC)ccnc3C(C)C)c3nc(-c4c(N)c(F)cc(Cl)c4F)c(Cl)cc23)[C@@H](C)C1` [Embodiment 194, 4-((S)-4-acryloyl-2-methylpiperazin-1-yl)-7-(2-amino-5-chloro-3,6-difluorophenyl)-6-chloro-1-(2-isopropyl-4-(methylthio)pyridin-3-yl) pyrido [2,3-d] pyrimidin-2 (1H)-one], the IC50 in data set [1] turned out to be 7 nM.

Turning to `C=CC(=O)N1CCN(c2nc(=O)n(-c3c(SC)ccnc3C(C)C)c3nc(-c4c(N)c(C)cc(F)c4F)c(Cl)cc23)[C@@H](C)C1` [Embodiment 195, 4-((S)-4-acryloyl-2-methylpiperazin-1-yl)-7-(2-amino-5,6-difluoro-3-methylphenyl)-6-chloro-1-(2-isopropyl-4-(methylthio)pyridin-3-yl) pyrido [2,3-d] pyrimidin-2 (1H)-one], the IC50 in data set [1] is 5.2 nM.

Regarding `C=CC(=O)N1C[C@H](C)N(c2nc(=O)n(-c3c(SC)ccnc3C(C)C)c3nc(-c4c(N)c(F)cc(Cl)c4F)c(Cl)cc23)C[C@H]1C` [Embodiment 196, 4-((2S, 5R)-4-acryloyl-2,5-dimethylpiperazin-1-yl)-7-(2-amino-5-chloro-3,6-difluorophenyl)-6-chloro-1-(2-isopropyl-4-(methylthio)pyridin-3-yl) pyrido [2,3-d] pyrimidin-2 (1H)-one], in data set [1], the IC50 stood at 5.3 nM.

For the molecule `C=CC(=O)N1CCN(c2nc(=O)n(-c3c(SC)ccnc3C(C)C)c3nc(-c4c(F)ccc(F)c4N)c(Cl)cc23)[C@@H](C)C1` [Embodiment 198, 4-((S)-4-acryloyl-2-methylpiperazin-1-yl)-7-(2-amino-3,6-difluorophenyl)-6-chloro-1-(2-isopropyl-4-(methylthio)pyridin-3-yl)pyrido[2,3-d]pyrimidin-2(1H)-one], the IC50 in data set [1] was 6 nM.

Take `C=CC(=O)N1C[C@H](C)N(c2nc(=O)n(-c3c(SC)ccnc3C(C)C)c3nc(-c4c(N)c(C)cc(F)c4F)c(Cl)cc23)C[C@H]1C` [Embodiment 201, 4-((2S, 5R)-4-acryloyl-2,5-dimethylpiperazin-1-yl)-7-(2-amino-5,6-difluoro-3-methylphenyl)-6-chloro-1-(2-isopropyl-4-(methylthio)pyridin-3-yl) pyrido [2,3-d] pyrimidin-2 (1H)-one]: the half-maximal inhibitory concentration (IC50) in data set [1] came to 4.9 nM.

For the molecule `C=CC(=O)N1CCN(c2nc(=O)n(-c3c(SC)ccnc3C(C)C)c3nc(-c4c(C)cccc4F)c(Cl)cc23)[C@@H](C)C1` [Embodiment 206, 4-((S)-4-acryloyl-2-methylpiperazin-1-yl)-6-chloro-7-(2-fluoro-6-methylphenyl)-1-(2-isopropyl-4-(methylthio)pyridin-3-yl) pyrido [2,3-d] pyrimidin-2 (1H)-one], the IC50 in data set [1] was determined as 14 nM.

Turning to `C=CC(=O)N1CCN(c2nc(=O)n(-c3c(SC)ccnc3C(C)C)c3nc(-c4c(F)cccc4Cl)c(Cl)cc23)[C@@H](C)C1` [Embodiment 208, 4-((S)-4-acryloyl-2-methylpiperazin-1-yl)-6-chloro-7-(2-chloro-6-fluorophenyl)-1-(2-isopropyl-4-(methylthio)pyridin-3-yl) pyrido [2,3-d] pyrimidin-2 (1H)-one], the IC50 in data set [1] was 59 nM.

Regarding `CC(C)[N+](C)(CCOC(=O)C1c2ccccc2Oc2ccccc21)C(C)C` [Propantheline, reference compound], in “in vitro” (human), the “Residual rate (%) 0 min” value stood at 100.00%, the “Residual rate (%) 15 min” value was 79.98%, the “Residual rate (%) 30 min” value was determined as 50.52% and the “Residual rate (%) 60 min” value is reported as 14.65%. For the same molecule, the “Residual rate (%) 120 min” value in “in vitro” (human) was determined as 0.72%. Moreover, in “in vitro” (mouse), the “Residual rate (%) 0 min” value is recorded as 100.00%, the “Residual rate (%) 15 min” value worked out at 79.79%, the “Residual rate (%) 30 min” value came to 48.66% and the “Residual rate (%) 60 min” value is recorded as 23.39%. The “Residual rate (%) 120 min” value in “in vitro” (mouse) was 6.66%.
